From patent publication US6730293B1, “Compositions and methods for treating inflammatory diseases of the skin” (CellGate, Inc., priority 1999, dated 2004) come the findings set out here.

In series [1] the test system is Jurkat cells. In words: Cellular uptake kinetics assay (Michaelis-Menton). Type of series: cell-based, human. As to conditions: for Vmax: Jurkat cells, 30, 60, 120, 240 seconds; for Km values, fold greater than that found for Tat49-57: discussion; for rate of cell entry, fold faster than Tat47-59: from Km values. How it is done:
Cellular Uptake Kinetics Assay. […] The reactions were quenched by diluting the samples into 2% FCS/PBS (5 mL). The assays were then worked up and analyzed by fluorescent flow cytometry as previously described.

In series [2] the test system is Jurkat cells. In words: FACS cellular uptake assay of fluorescently labeled peptides and peptoids. In kind it is cell-based, human. As to conditions: for additional loss of intracellular fluorescence from the one amino acid truncated analogs / loss of intracellular fluorescence compared to the parent sequence (Tat49-57): 15 min at 23° C.; for cellular uptake compared with Tat49-57: 23° C., 2% FCS. How it is done:
Cellular Uptake Assay. […] The accuracy of this method for determining concentration was established by weighing selected samples and dissolving them in a known amount of PBS buffer. The concentrations determined by UV spectroscopy correlated with the amounts weighed out manually. Jurkat cells (human T cell line), murine B cells (CH27), or human PBL cells were grown in 10% fetal calf serum and DMEM and each of these were used for cellular uptake experiments. […] The microtiter plates were centrifuged and the cells were isolated, washed with cold PBS (3×250 μL), incubated with 0.05% trypsin/0.53 mM EDTA at 37° C. for 5 min, washed with cold PBS, and resuspended in PBS containing 0.1% propidium iodide. The cells were analyzed using fluorescent flow cytometry (FACScan, Becton Dickinson) and cells staining with propidium iodide were excluded from the analysis. The data presented is the mean fluorescent signal for the 5000 cells collected.
Inhibition of Cellular Uptake with Sodium Azide. The assays were performed as previously described with the exception that the cells used were preincubated for 30 min with 0.5% sodium azide in 2% FCS/PBS buffer prior to the addition of fluorescent peptides and the cells were washed with 0.5% sodium azide in PBS buffer. All of the cellular uptake assays were run in parallel in the presence and absence of sodium azide.
To determine the structural requirements for the cellular uptake of short arginine-rich peptides, a series of fluorescently-labeled truncated analogues of Tat49-57 were synthesized using standard solid-phase chemistry. See, e.g., Atherton, E.et al. SOLID-PHASE PEPTIDE […] (IRL: Oxford, Engl. 1989). A fluorescein moiety was attached via an aminohexanoic acid spacer on the amino termini. The ability of these fluorescently labeled peptides to enter Jurkat cells was then analyzed using fluorescent activated cell sorting (FACS) ( ). The peptide constructs tested were Tat49-57 (Fl-ahx-[…]): Tat49-56 (Fl-ahx-[…]), Tat49-55 (Fl-ahx-RKKRRQR), Tat50-57 (Fl-ahx-[…]), and […] (Fl-ahx-KRRQRRR). Differentiation between cell surface binding and internalization was accomplished throughout by running a parallel set of assays in the presence and absence of sodium azide. Because sodium azide inhibits energy-dependent cellular uptake but not cell surface binding, the difference in fluorescence between the two assays provided the amount of fluorescence resulting from internalization.

For a further series, the system named is skin of nude mice. The experiment in a line: Penetration of taxol-biotinylated D-arginine conjugates into skin of nude mice. Type of series: in vivo. As to conditions: back of nude mice, 1 mM-100 μM in PBS, 30, 60, 120 minutes. How it is done:
Slides were analyzed by fluorescent microscopy.

Molecules are shown by their SMILES. Peptide text beside a SMILES is read from it. * marks the point of attachment. FITC = O=C1OC2(c3ccc(O)cc3Oc3cc(O)ccc32)c2ccc(NC(=S)*)cc21; Ahx = NCCCCCC(=O)O

Regarding `N=C(N)NCCC[C@@H](NC(=O)[C@@H](CCCNC(=N)N)NC(=O)[C@@H](CCCNC(=N)N)NC(=O)[C@@H](CCCNC(=N)N)NC(=O)[C@@H](CCCNC(=N)N)NC(=O)[C@@H](CCCNC(=N)N)NC(=O)[C@@H](CCCNC(=N)N)NC(=O)[C@@H](CCCNC(=N)N)NC(=O)[C@@H](CCCNC(=N)N)NC(=O)CCCCCNC(=S)Nc1ccc2c(c1)C(=O)OC21c2ccc(O)cc2Oc2cc(O)ccc21)C(N)=O` (single isomer, unassigned) [R9], in the series with Jurkat cells [1], the Vmax turned out to be 0.38; the “Km values, fold greater than that found for Tat49-57” value worked out at 30 fold; the “rate of cell entry, fold faster than Tat47-59” value was around 20 fold. Also, the “Km values, fold greater than that found for Tat49-57” value with Jurkat cells [1] (listed as r9) is reported as 100 fold. In the series with Jurkat cells [2] (4 min at 23° C.), the “cellular uptake of peptoids compared with d-arginine oligomers / other peptoids” value is given as “comparable to N-btg9” and the “relative order of uptake” value is “N-hxg9 (6 methylene)>N-btg9 (4 methylene)>r9 (3 methylene)>N-arg9 (3 methylene)>N-etg9 (2 methylene)”.

Turning to `C[C@H](NC(=O)[C@H](CCCNC(=N)N)NC(=O)[C@H](CCCNC(=N)N)NC(=O)[C@H](CCCCN)NC(=O)[C@H](CCCCN)NC(=O)[C@H](CCCNC(=N)N)NC(=O)CCCCCNC(=S)Nc1ccc2c(c1)C(=O)OC21c2ccc(O)cc2Oc2cc(O)ccc21)C(=O)N[C@@H](CCCNC(=N)N)C(=O)N[C@@H](CCCNC(=N)N)C(=O)N[C@@H](CCCNC(=N)N)C(N)=O` [A-54] ({FITC-Ahx}-RKKRRARRR-NH2), in the series on Jurkat cells [2] (12 min at 23° C.), the “loss of cellular uptake on alanine substitution of Tat49-57” value is reported as “modest decrease”.

Consider `CC[C@H](C)[C@H](NC(=O)[C@H](CCCCN)NC(=O)[C@@H](NC(=O)[C@H](CCC(N)=O)NC(=O)[C@H](CCCNC(=N)N)NC(=O)CCCCCNC(=S)Nc1ccc2c(c1)C(=O)OC21c2ccc(O)cc2Oc2cc(O)ccc21)[C@@H](C)CC)C(=O)N[C@@H](Cc1c[nH]c2ccccc12)C(=O)N[C@@H](Cc1ccccc1)C(=O)N[C@@H](CCC(N)=O)C(=O)N[C@@H](CC(N)=O)C(=O)N[C@@H](CCCNC(=N)N)C(=O)N[C@@H](CCCNC(=N)N)C(=O)N[C@@H](CCSC)C(=O)N[C@@H](CCCCN)C(=O)N[C@@H](Cc1c[nH]c2ccccc12)C(=O)N[C@@H](CCCCN)C(=O)N[C@@H](CCCCN)C(N)=O` [Antennapedia43-58, reference compound], for which, in the series with Jurkat cells [1], the Vmax amounted to 0.41 and the “rate of cell entry, fold faster than Tat47-59” value was “approximately 2 fold”.

For the compound `CC(=O)O[C@H]1C(=O)[C@@]2(C)[C@H]([C@H](OC(=O)c3ccccc3)[C@]3(O)C[C@H](OC(=O)[C@H](OC(=O)NCCCC[C@H](NC(=O)[C@@H](CCCNC(=N)N)NC(=O)[C@@H](CCCNC(=N)N)NC(=O)[C@@H](CCCNC(=N)N)NC(=O)[C@@H](CCCNC(=N)N)NC(=O)[C@@H](CCCNC(=N)N)NC(=O)CCCCCNC(=O)CCCC[C@@H]4SC[C@@H]5NC(=O)N[C@@H]54)C(N)=O)[C@@H](NC(=O)c4ccccc4)c4ccccc4)C(C)=C1C3(C)C)[C@]1(OC(C)=O)CO[C@@H]1C[C@@H]2O` [B-aca-r5-K-taxol], the “penetration into skin (fluorescent streptavidin staining)” value in the series with skin of nude mice is given as “very little uptake”.

Take `CC(=O)O[C@H]1C(=O)[C@@]2(C)[C@H]([C@H](OC(=O)c3ccccc3)[C@]3(O)C[C@H](OC(=O)[C@H](OC(=O)NCCCC[C@H](NC(=O)[C@@H](CCCNC(=N)N)NC(=O)[C@@H](CCCNC(=N)N)NC(=O)[C@@H](CCCNC(=N)N)NC(=O)[C@@H](CCCNC(=N)N)NC(=O)[C@@H](CCCNC(=N)N)NC(=O)[C@@H](CCCNC(=N)N)NC(=O)[C@@H](CCCNC(=N)N)NC(=O)CCCCCNC(=O)CCCC[C@@H]4SC[C@@H]5NC(=O)N[C@@H]54)C(N)=O)[C@@H](NC(=O)c4ccccc4)c4ccccc4)C(C)=C1C3(C)C)[C@]1(OC(C)=O)CO[C@@H]1C[C@@H]2O` [B-aca-r7-K-taxol]: the “penetration into skin (fluorescent streptavidin staining)” value in the series on skin of nude mice is “effectively entered into and across the epidermis and into the dermis”.

For the compound `N=C(N)NCCC[C@H](NC(=O)[C@H](CCC(N)=O)NC(=O)[C@H](CCCNC(=N)N)NC(=O)[C@H](CCCNC(=N)N)NC(=O)[C@H](CCCCN)NC(=O)[C@H](CCCCN)NC(=O)[C@H](CCCNC(=N)N)NC(=O)CCCCCNC(=S)Nc1ccc2c(c1)C(=O)OC21c2ccc(O)cc2Oc2cc(O)ccc21)C(N)=O` [Tat49-55, Fl-ahx-RKKRRQR] ({FITC-Ahx}-RKKRRQR-NH2), the “additional loss of intracellular fluorescence from the one amino acid truncated analogs” value in the series on Jurkat cells [2] amounted to 60%.

`N=C(N)NCCC[C@H](NC(=O)[C@H](CCCNC(=N)N)NC(=O)[C@H](CCC(N)=O)NC(=O)[C@H](CCCNC(=N)N)NC(=O)[C@H](CCCNC(=N)N)NC(=O)[C@H](CCCCN)NC(=O)[C@H](CCCCN)NC(=O)[C@H](CCCNC(=N)N)NC(=O)CCCCCNC(=S)Nc1ccc2c(c1)C(=O)OC21c2ccc(O)cc2Oc2cc(O)ccc21)C(N)=O` [Tat49-56] ({FITC-Ahx}-RKKRRQRR-NH2): in the series with Jurkat cells [2], the “loss of intracellular fluorescence compared to the parent sequence (Tat49-57)” value was found to be 80%.

With `N=C(N)NCCC[C@H](NC(=O)[C@H](CCCNC(=N)N)NC(=O)[C@H](CCCNC(=N)N)NC(=O)[C@H](CCC(N)=O)NC(=O)[C@H](CCCNC(=N)N)NC(=O)[C@H](CCCNC(=N)N)NC(=O)[C@H](CCCCN)NC(=O)[C@H](CCCCN)NC(=O)[C@H](CCCNC(=N)N)NC(=O)CCCCCNC(=S)Nc1ccc2c(c1)C(=O)OC21c2ccc(O)cc2Oc2cc(O)ccc21)C(N)=O` [Tat49-57, reference compound], the Vmax in the series on Jurkat cells [1] is 0.38. The “cellular uptake compared with Tat49-57” value in the series on Jurkat cells [2] is “between that of R6 and R7”.

As for `N=C(N)NCCC[C@H](NC(=O)[C@H](CCCNC(=N)N)NC(=O)[C@H](CCCNC(=N)N)NC(=O)[C@H](CCC(N)=O)NC(=O)[C@H](CCCNC(=N)N)NC(=O)[C@H](CCCNC(=N)N)NC(=O)[C@H](CCCCN)NC(=O)[C@H](CCCCN)NC(=O)CCCCCNC(=S)Nc1ccc2c(c1)C(=O)OC21c2ccc(O)cc2Oc2cc(O)ccc21)C(N)=O` [Tat50-57] ({FITC-Ahx}-KKRRQRRR-NH2), in the series on Jurkat cells [2], the “loss of intracellular fluorescence compared to the parent sequence (Tat49-57)” value was 80%.

As for `N=C(N)NCCC[C@H](NC(=O)[C@H](CCCNC(=N)N)NC(=O)[C@H](CCCNC(=N)N)NC(=O)[C@H](CCC(N)=O)NC(=O)[C@H](CCCNC(=N)N)NC(=O)[C@H](CCCNC(=N)N)NC(=O)[C@H](CCCCN)NC(=O)CCCCCNC(=S)Nc1ccc2c(c1)C(=O)OC21c2ccc(O)cc2Oc2cc(O)ccc21)C(N)=O` [Tat51-57, Fl-ahx-KRRQRRR] ({FITC-Ahx}-KRRQRRR-NH2), the “additional loss of intracellular fluorescence from the one amino acid truncated analogs” value with Jurkat cells [2] is given as “did not further diminish the amount of internalization”.

Regarding `N=C(N)NCCC[C@H](NC(=O)[C@H](CCCCN)NC(=O)[C@H](CCCCN)NC(=O)[C@H](CCCNC(=N)N)NC(=O)[C@H](CCCNC(=N)N)NC(=O)[C@H](CCC(N)=O)NC(=O)[C@H](CCCNC(=N)N)NC(=O)[C@H](CCCNC(=N)N)NC(=O)[C@H](CCCNC(=N)N)NC(=O)CCCCCNC(=S)Nc1ccc2c(c1)C(=O)OC21c2ccc(O)cc2Oc2cc(O)ccc21)C(N)=O` [Tat57-49], in the series on Jurkat cells [2], the “cellular uptake compared with Tat49-57” value was “more effective at entering Jurkat cells then Tat49-57”.

As for `N=C(N)NCCC[C@@H](NC(=O)[C@@H](CCCNC(=N)N)NC(=O)[C@@H](CCCNC(=N)N)NC(=O)[C@@H](CCC(N)=O)NC(=O)[C@@H](CCCNC(=N)N)NC(=O)[C@@H](CCCNC(=N)N)NC(=O)[C@@H](CCCCN)NC(=O)[C@@H](CCCCN)NC(=O)[C@@H](CCCNC(=N)N)NC(=O)CCCCCNC(=S)Nc1ccc2c(c1)C(=O)OC21c2ccc(O)cc2Oc2cc(O)ccc21)C(N)=O` [d-Tat49-57, Fl-ahx-rkkrrqrrr], the “cellular uptake compared with Tat49-57” value in the series with Jurkat cells [2] was “more effective at entering Jurkat cells then Tat49-57”.

Regarding `N=C(N)NCCC[C@@H](NC(=O)[C@@H](CCCCN)NC(=O)[C@@H](CCCCN)NC(=O)[C@@H](CCCNC(=N)N)NC(=O)[C@@H](CCCNC(=N)N)NC(=O)[C@@H](CCC(N)=O)NC(=O)[C@@H](CCCNC(=N)N)NC(=O)[C@@H](CCCNC(=N)N)NC(=O)[C@@H](CCCNC(=N)N)NC(=O)CCCCCNC(=S)Nc1ccc2c(c1)C(=O)OC21c2ccc(O)cc2Oc2cc(O)ccc21)C(N)=O` [d-Tat57-49, Fl-ahx-rrrqrrkkr], the “cellular uptake compared with Tat49-57” value with Jurkat cells [2] is reported as “more effective at entering Jurkat cells then Tat49-57”.
